From patent publication US20120196933A1, “MEXILETINE PRODRUGS” (priority 2010, published 2012)
Where “and” joins values, the source holds several entries; their conditions need not be identical. Identical values can stand only once. Like-named read-outs stand apart in the source and are kept apart here. Marks after values point to notes of the source that are not given here.

Tests used:
[1] = In vitro stability of mexiletine prodrugs under conditions prevailing in the gut; assay type: physicochemical; conditions: 0.1M phosphate buffer pH 7.4, 2 h
[2] = Systemic availability of mexiletine in the cynomolgus monkey from mexiletine prodrugs (oral gavage); assay type: in vivo; conditions: 1 mg/kg mexiletine free base, plasma mexiletine
Protocol: Test substances (i.e., mexiletine, and various mexiletine amino acid prodrugs) were administered by oral gavage to groups of two and, in one case, five male cynomolgus monkeys. Blood samples were taken at various times after administration and submitted to analysis for the parent drug using a validated LC-MS-MS assay. Pharmacokinetic parameters derived from the plasma bioanalytical data were determined using Win Nonlin.

[3] = Systemic availability of mexiletine in the dog from mexiletine prodrugs (oral gavage); assay type: in vivo; conditions: 1 mg/kg mexiletine free base
Protocol: Test substances (i.e., mexiletine, and various mexiletine amino acid prodrugs) were administered by oral gavage to groups of two or some cases five dogs. The characteristics of the test animals are set out in Table 6.
Blood samples were taken at various times after administration and submitted to analysis for parent drug using a validated LC-MS-MS assay. Pharmacokinetic parameters derived from the plasma bioanalytical data were determined using Win Nonlin.

[4] = In vitro stability of mexiletine prodrugs under conditions prevailing in the gut; assay type: physicochemical; conditions: HPLC; for Simulated gastric fluid (pH 1.1): % remaining after 2 h/37° C.: simulated gastric fluid pH 1.1, 2 h; for Simulated intestinal fluid (pH 6.8): % remaining after 2 h/37° C.: simulated intestinal fluid pH 6.8, 2 h
Protocol: To investigate if the prodrugs of the present invention are stable in conditions mimicking the gut, various mexiletine amino acid prodrugs were incubated at 37° C. in simulated gastric and simulated intestinal juice (USP defined composition) for 2 hours. The remaining concentrations of the prodrug were then assayed by HPLC.

[5] = test system: rabbit stomach smooth muscle; test: Electrical field stimulated contractions of isolated rabbit stomach smooth muscle; assay type: cell-based; conditions: read-out: ED50 for attenuation of EFS induced contractions
ferret = test: Emetic effects following oral administration to the ferret; assay type: in vivo; conditions: oral 20 mg/kg mexiletine HCl or molar equivalent, individual animals
Description: Male ferrets (n=7) were allowed free access to pelleted diet until late afternoon on the day prior to the day of each test. The food was then removed and the ferrets were starved overnight. Food was not returned until after completion of the emetic observation.

patients = conditions: cited from earlier work
[6] = test system: patients with myotonic disorders; conditions: 1200 mg daily tocamide or 600 mg daily mexiletine, three divided doses; cited from earlier work
sodium channel = conditions: relative to mexiletine; cited from earlier work
ADR mouse = test: Anti-myotonic effects in the ADR mouse (righting response); assay type: in vivo; conditions: oral 5 mg/kg
Protocol: The effects of oral administration of either mexiletine glutamic acid amide at 5, 10 or 20 mg/kg or mexiletine 5 mg/kg on the righting response of a group of three adr/adr mice were examined on three separate days. Each assessment involved placing the individual mice on their back no fewer than seven successive occasions in rapid succession and determining the time to successful righting at various time pre and post dosing (−10, +15, +30, +60, +120 & +180 mins).

[7] = test system: 9-AC induced myotonia in the rat; test: Anti-myotonic effects in 9-anthracene carboxylic acid (9-AC) treated rats (righting time); assay type: in vivo; conditions: for Mean ± SEM righting response time: 9-AC 30 mg/kg ip
Protocol: The use of ip injection of 9-anthracene carboxylic acid is known to induce a myotonic state in rats which can then be used to assess the activity of potential anti-myotonic compounds (Villegas-NavarroA et al (1992) Exp. Toxicol. Pathol. 44 34-39).
Groups of four rats were predosed with 30 mg/kg 9-AC (time 0) and ten minutes later their righting time was assessed repeatedly seven times in rapid succession. They were then dosed po with mexiletine or mexiletine glutamic acid amide at 1, 5, 10, 20 or 40 mg/kg and the righting time reassessed at ˜30, 60, 120 and 180 minutes after 9-AC injection. At each dose level, a group of four control animals, given vehicle alone, was used

[8] = test system: patients with myotonic dystrophy (type 1); conditions: 150 tid or 200 mg tid, 7 weeks; cited from earlier work
[9] = oral, cited from earlier work
[10] = listed as Mexiletine lysine amide

Cc1cccc(C)c1OCC(C)NC(=O)CN.O=C(O)C(F)(F)F (racemic) [Mexiletine glycine amide, Glycine-(rac)-mexiletine Trifluoroacetate]
pH 7.4, 37° C. 0.1M phosphate buffer: % remaining after 2 h/37° C. [1]: 99.9%
T50% Cmax [2]: 3.71** h
T50% Cmax ([3]; plasma mexiletine): 5.5** h
Simulated gastric fluid (pH 1.1): % remaining after 2 h/37° C. [4]: 99.8%
Simulated intestinal fluid (pH 6.8): % remaining after 2 h/37° C. [4]: 99.8%
EC50 ([5]; Oryctolagus cuniculus, rabbit stomach antrum strips, EFS 14 Hz): 9.16 µM
Total number of individual incidences of retching (ferret; 2 h observation): 20 (2×) and 2 (2×) and 12 and 0 and 10
Total number of individual incidences of vomiting (ferret; 2 h observation): 5 and 1 (2×) and 2 and 0 (2×) and 3
Time to onset of retching (ferret): 15 min (2×) and 13 min (2×) and 11 min and >120 min and 10 min
Time to onset of vomiting (ferret): 17 min and 13 min (2×) and 11 min and >120 min (2×) and 15 min

CNCC[C@H](Oc1cccc2ccccc12)c1cccs1 [Duloxetine, duloxetine]
Treated patients with nausea (patients; treated patients): 20-40%

Cc1cccc(C)c1OCC(C)NC(=O)[C@@H](N)CCCCN.O=C(O)C(F)(F)F.O=C(O)C(F)(F)F (mixture of isomers) [Mexiletine (S)-lysine amide, (Rac)-Mexiletine-(S)-Lysine Ditrifluoroacetate]
pH 7.4, 37° C. 0.1M phosphate buffer: % remaining after 2 h/37° C. [1]: 100%
AUC of mexiletine ([3]; plasma mexiletine): 301** ng · h/mL
Cmax of mexiletine ([3]; plasma mexiletine): 54.4** ng/mL
T50% Cmax ([3]; plasma mexiletine): 5.0** h
F(rel) ([3]; relative to mexiletine): 28.0** %
Simulated gastric fluid (pH 1.1): % remaining after 2 h/37° C. [4, 10]: 99.8% and 100%
Simulated intestinal fluid (pH 6.8): % remaining after 2 h/37° C. [4, 10]: 80.8% and 100%
EC50 ([5]; rabbit stomach antrum strips, EFS 14 Hz): 21.8 µM

CC(C)C[C@H](CN)CC(=O)O [pregabalin]
Patients with dizziness and somnolence (patients; patients treated at the higher doses): up to 30%

Cc1cccc(C)c1NC(=O)C(C)N (stereo not drawn) [tocamide]
Increase in the speed of stair step movement [6]: 2.7 fold
Reduction in the time taken for eye opening [6]: 7 fold
Reduction of hand opening time [6]: 4.2 fold

Cc1cc(O)cc(C)c1OCC(C)N (stereo not drawn) [Para-hydroxymexiletine]
Sodium channel inhibitory activity retained relative to the parent molecule (sodium channel): around 25%

Cc1cccc(C)c1OCC(C)N.Cl (racemic) [Mexiletine hydrochloride, (rac)-1-(2,6-dimethylphenoxy)-2-propanamine hydrochloride]
Effects on righting time (ADR mouse): marginal
Mean ± SEM righting response time (ADR mouse; +15 mins): 7.80 ± 3.72 s
Mean ± SEM righting response time (ADR mouse; +30 mins): 9.53 ± 5.07 s
Mean ± SEM righting response time (ADR mouse; +60 mins): 10.5 ± 3.68 s
Mean ± SEM righting response time (ADR mouse; +120 mins): 12.5 ± 4.98 s
Mean ± SEM righting response time (ADR mouse; +180 mins): 12.5 ± 4.27 s
Mean ± SEM righting response time (ADR mouse; −10 mins (pre dosing)): 7.94 ± 1.25 s
Coefficient of variation of the response ([7]; 10 mg/kg (same molar dose level), time of maximal effect of 9-AC (+30 mins)): 96%
Mean ± SEM righting response time ([7]; drug 1 mg/kg po, 9-AC +10 mins (predrug)): 1.96 ± 0.193 s
Mean ± SEM righting response time ([7]; drug 1 mg/kg po, 9-AC +30 mins): 2.94 ± 0.490 s
Mean ± SEM righting response time ([7]; drug 1 mg/kg po, 9-AC +60 mins): 1.73 ± 0.165 s
Mean ± SEM righting response time ([7]; drug 1 mg/kg po, 9-AC +120 mins): 1.17 ± 0.124 s
Mean ± SEM righting response time ([7]; drug 1 mg/kg po, 9-AC +180 mins): 0.831 ± 0.169 s
Mean ± SEM righting response time ([7]; drug 5 mg/kg po, 9-AC +10 mins (predrug)): 2.36 ± 0.208 s
Mean ± SEM righting response time ([7]; drug 5 mg/kg po, 9-AC +30 mins): 2.21 ± 0.153 s
Mean ± SEM righting response time ([7]; drug 5 mg/kg po, 9-AC +60 mins): 2.34 ± 0.386 s
Mean ± SEM righting response time ([7]; drug 5 mg/kg po, 9-AC +120 mins): 1.33 ± 0.194 s
Mean ± SEM righting response time ([7]; drug 5 mg/kg po, 9-AC +180 mins): 0.980 ± 0.220 s
Mean ± SEM righting response time ([7]; drug 10 mg/kg po, 9-AC +10 mins (predrug)): 2.26 ± 0.195 s
Mean ± SEM righting response time ([7]; drug 10 mg/kg po, 9-AC +30 mins): 3.28 ± 1.58 s
Mean ± SEM righting response time ([7]; drug 10 mg/kg po, 9-AC +60 mins): 2.28 ± 0.347 s
Mean ± SEM righting response time ([7]; drug 10 mg/kg po, 9-AC +120 mins): 1.41 ± 0.190 s
Mean ± SEM righting response time ([7]; drug 20 mg/kg po, 9-AC +10 mins (predrug)): 2.27 ± 0.260 s
Mean ± SEM righting response time ([7]; drug 20 mg/kg po, 9-AC +60 mins): 1.43 ± 0.294 s
Mean ± SEM righting response time ([7]; drug 20 mg/kg po, 9-AC +120 mins): 0.949 ± 0.131 s
Mean ± SEM righting response time ([7]; drug 40 mg/kg po, 9-AC +10 mins (predrug)): 2.61 ± 0.088 s
Mean ± SEM righting response time ([7]; drug 40 mg/kg po, 9-AC +60 mins): 0.913 ± 0.0507 s
Mean ± SEM righting response time ([7]; drug 40 mg/kg po, 9-AC +120 mins): 0.746 ± 0.0699 s
Mean ± SEM righting response time ([7]; drug 40 mg/kg po, 9-AC +180 mins): 0.583 ± 0.0606 s
Increase in the speed of stair step movement [6]: 2.8 fold
Reduction in the time taken for eye opening [6]: 6 fold
Reduction of hand opening time [6]: 6.9 fold
Reduction in grip relaxation time [8]: 2 fold
EC50 ([5]; Oryctolagus cuniculus): 2.17 µM

NCC1(CC(=O)O)CCCCC1 [gabapentin]
Bioavailability ([9]; 900 mg/day gabapentin): approximately 60%
Bioavailability ([9]; 1200 mg/day gabapentin): ~47%
Bioavailability ([9]; 2400 mg/day gabapentin): ~34%
Bioavailability ([9]; 3600 mg/day gabapentin): ~33%
Bioavailability ([9]; 4800 mg/day gabapentin): ~27%
